Experimental data: the NIST ThermoML archive (doi:10.1021/je900414p)

Assay: xn = mol fraction of the nth substance listed
Details: Liquid

CCOS(=O)(=O)[O-].CCn1cc[n+](C)c1 [1-ethyl-3-methylimidazolium ethyl sulfate] + CCO
mass density [kg/m3]
Details	100 kPa	2500 kPa	5000 kPa	10000 kPa	15000 kPa	20000 kPa	25000 kPa	30000 kPa	35000 kPa
298.15 K, x1 = 0.05056	855.98	857.88	859.83	863.62	867.22	870.7	874.05	877.28	880.4
298.15 K, x1 = 0.103	913.93	915.61	917.4	920.89	924.24	927.48	930.6	933.63	936.57
298.15 K, x1 = 0.1247	935.16	936.81	938.54	941.91	945.16	948.3	951.34	954.29	957.15
298.15 K, x1 = 0.2126	1003.9	1005.45	1007.01	1010.07	1013.02	1015.88	1018.67	1021.38	1024.03
298.15 K, x1 = 0.2919	1052	1052.97	1054.41	1057.22	1059.95	1062.62	1065.22	1067.75	1070.23
298.15 K, x1 = 0.3185	1065.62	1066.9	1068.3	1071.05	1073.73	1076.33	1078.88	1081.37	1083.79
298.15 K, x1 = 0.4198	1109.11	1110.35	1111.65	1114.21	1116.72	1119.15	1121.54	1123.89	1126.17
298.15 K, x1 = 0.4847	1131.56	1132.76	1133.99	1136.46	1138.86	1141.21	1143.53	1145.8	1148.02
298.15 K, x1 = 0.5713	1157.07	1158.2	1159.39	1161.74	1164.05	1166.31	1168.52	1170.7	1172.85
298.15 K, x1 = 0.6827	1183.93	1185.01	1186.16	1188.41	1190.6	1192.77	1194.89	1197	1199.05
298.15 K, x1 = 0.7919	1205.61	1206.51	1207.59	1209.76	1211.88	1213.98	1216.03	1218.05	1220.04
298.15 K, x1 = 0.9317	1227.5	1228.53	1229.57	1231.66	1233.72	1235.74	1237.73	1239.69	1241.63
303.15 K, x1 = 0.05056	851.9	853.85	855.87	859.72	863.43	866.98	870.39	873.69	876.89
303.15 K, x1 = 0.103	910.06	911.7	913.54	917.1	920.52	923.82	927	930.09	933.1
303.15 K, x1 = 0.1247	931.25	932.93	934.69	938.12	941.44	944.64	947.74	950.74	953.67
303.15 K, x1 = 0.2126	1000.1	1001.68	1003.26	1006.36	1009.37	1012.29	1015.12	1017.88	1020.58
303.15 K, x1 = 0.2919	1048.63	1049.46	1050.92	1053.74	1056.51	1059.18	1061.79	1064.33	1066.82
303.15 K, x1 = 0.3185	1061.99	1063.29	1064.7	1067.49	1070.22	1072.86	1075.44	1077.96	1080.42
303.15 K, x1 = 0.4198	1105.54	1106.82	1108.14	1110.73	1113.28	1115.76	1118.18	1120.55	1122.89
303.15 K, x1 = 0.4847	1128.01	1129.22	1130.5	1132.99	1135.43	1137.83	1140.16	1142.46	1144.71
303.15 K, x1 = 0.5713	1153.59	1154.71	1155.92	1158.31	1160.66	1162.94	1165.19	1167.4	1169.59
303.15 K, x1 = 0.6827	1180.46	1181.59	1182.73	1185	1187.24	1189.45	1191.6	1193.74	1195.84
303.15 K, x1 = 0.7919	1202.24	1203.1	1204.19	1206.38	1208.54	1210.64	1212.73	1214.77	1216.82
303.15 K, x1 = 0.9317	1224.05	1225.06	1226.12	1228.23	1230.32	1232.36	1234.37	1236.36	1238.34
